Measurements published in PMC12250347, “Calcium-dependent pathway as a primary cause of hypoxic RGC damage in monkey retinal explants” (PLOS One, 2025).
“Also recorded” adds a separate entry of the source.

Key:
[1] = tested on: calpain-specific SBDP150 in nerve fiber layer (NFL); assay: SBDP150 immunostaining of flat-mounted retinal explants under hypoxia/reoxygenation; type: cell-based, rhesus macaques (Macaca mulatta); conditions: H16R8
Method: (§1) Retina explant culture was performed as described in our previous report, except for the induction of hypoxia. Briefly, a hypoxic chamber (Coy Laboratory Products, Grass Lake, MI, USA) was controlled at 0.3% oxygen with a 95% N2/5% CO2 gas mixture. Retinas were dissected into fan-shaped explants with 6 or 7 petals (> 5 mm) in HBSS. Each explant was placed with the RGC side facing up on a Millicell organotypic standing insert (0.4 μm, 30 mm diameter, MilliporeSigma) in six-well, culture plates. They were cultured for 2 hr at 37°C under 95% N2/5% CO2 in Neurobasal-A medium supplemented with B27, N2 supplements, 2 mM L-glutamine (Thermo Fisher Scientific, Waltham, MA, USA), and 100 μg/mL primocin (Invivogen, San Diego, CA, USA). Retinal explants were then chamber-cultured under hypoxic conditions for 16 hr in a culture medium with 0.5 mM glucose, under 0.3% oxygen. The retinas were then re-oxygenated for 8 hr in a culture medium with 5.5 mM glucose. Normoxic control retinas were cultured for 24 hr in a culture medium with 5.5 mM glucose. When present, calpain inhibitors (SNJ-1945, PD-151746, C2I, and ABT-957) and cathepsin inhibitors (Odanacatib and SID26681509) in 0.1% DMSO were used at the final concentration of 10 or 100 μM in the medium. BAPTA (Thermo Fisher Scientific) and BAPTA-AM (Thermo Fisher Scientific) were also used at a final concentration of 3 or 10 mM or a final concentration of 100 or 500 μM, respectively.
(§2) All inhibitors and BAPTA were treated simultaneously with hypoxia induction, and BAPTA-AM treatment was 2 hr before hypoxia induction.
Formalin-fixed retinal explants were incubated overnight at −30°C in 1: 4 dilutions of DMSO-ethanol to promote antibody penetration. The explants underwent two cycles of freezing and thawing between −80°C and room temperature in 100% ethanol for 20 min. The retinas were then rehydrated in 70%, 50%, and 15% ethanol and PBS for 20 min each, followed by overnight incubation with 0.2% Triton X-100. The samples were stained with antibodies specific for calpain-specific SBDP150 [8] (1:100 dilution, Senju Pharmaceutical) and β-III tubulin (a neuron marker, 1:500 dilution, Merck). The nerve fiber layer (NFL) was observed approximately 5 mm from the tips of the fan-shaped retinal flat mounts. Confocal images were taken using a model LSM 880 spectral confocal system with a 20x 0.8 NA lens (Carl Zeiss, Oberkochen, Germany).

[2] = tested on: calpain 1 activation and proteolysis of α-spectrin; assay: Immunoblotting of retinal explants under hypoxia/reoxygenation; type: cell-based, rhesus macaques (Macaca mulatta); conditions: H16R8; BAPTA 3 or 10 mM, BAPTA-AM 0.1 or 0.5 mM
Method: as §1, §2
(§3) Each retinal explant was sonicated in RIPA Lysis and Extraction Buffer (Thermo Fisher Scientific), with protease inhibitors cocktail (Complete Mini-EDTA-free; MilliporeSigma). Protein concentrations in lysates were measured by BCA assay (Pierce BCA Protein Assay Kit, Thermo Fisher Scientific) using bovine serum albumin as a standard. For immunoblotting, 5 μg of each sample was loaded and run on 4% to 12% gradient or 10% SDS-PAGE gels (NuPAGE Bis-Tris Protein Gels, Thermo Fisher Scientific) with 2-(N-morpholino)ethanesulfonic acid buffer or 3-(N-morpholino) propanesulfonic acid buffer (Thermo Fisher Scientific). Proteins were then electrotransferred to a polyvinylidene fluoride membrane (MilliporeSigma) at 100 V for 60 min or 1.5 hr. Membranes were then blocked with 5% skim milk in Tris-buffer saline (Bio-Rad Laboratories, Hercules, CA, USA) containing 0.05% Tween 20. Each membrane was probed with primary antibodies against α-spectrin (1:2000 dilution, Enzo Life Sciences, Farmingdale, NY, USA), SBDP150 (1:1000 dilution, Senju Pharmaceutical), calpain 1 (1:1000 dilution, Thermo Fisher Scientific), calpain 2 (1:500, GeneTex, Irvine, CA, USA), cathepsin K (1:500 dilution, Abcam), and β-actin (1:1000 dilution, Merck). For calpain 1, immunoreactivity was visualized using a secondary antibody conjugated to alkaline phosphatase and the AP Conjugate Substrate Kit (Bio-Rad Laboratories). For other proteins, immunoreactivities were visualized using secondary antibodies conjugated with rabbit (Santa Cruz Biotechnology) or mouse horseradish peroxidase enzyme (Cytiva, Wilmington, DE, USA) and ECL Plus detection reagents (Cytiva). Images of the membranes were captured with FluorChem FC2 imager (Cell Biosciences, Santa Clara, CA, USA). The conversion of pro-cathepsin K (38 kDa) to its mature form (27 kDa) was used as an indicator of cathepsin K activation.

[3] = tested on: RGCs in monkey retinal explants; assay: PI staining and RGC counting in retinal explants under hypoxia/reoxygenation; type: cell-based, rhesus macaques (Macaca mulatta); conditions: H16R8; calcium chelator at higher concentration (BAPTA 10 mM; BAPTA-AM 0.5 mM, 2 hr before hypoxia)
From the text: Globes were obtained from rhesus macaques (Macaca mulatta) at 1–7 years of age from the Oregon National Primate Research Center (Beaverton, OR, USA). The wide range of ages was unavoidable because they became available from experiments that were unrelated to the present studies. These eyes were acceptable for the purpose of our experiments. The eyes were dissected within 5 hr after death, and excised eyes were soaked in cold Hanks’ balanced salt solution (HBSS; Corning, NY, USA) or Dulbecco’s phosphate-buffered saline (DPBS; Corning). Experimental animals were handled in accordance with the Research in Vision and Ophthalmology Statement for the Use of Animals in Ophthalmic and Vision Research and with the Guiding Principles in the Care and Use of Animals (Department of Health Education and Welfare Publication National Institutes of Health 80−23).
as §1, §2
To assess the disruption of membrane barrier function, propidium iodide (PI) was utilized. Following hypoxia/reoxygenation treatment, retinal explants were incubated for 20 min in a medium containing a final concentration of 2 μg/ml of PI. For quantitative analysis, the RGC marker, RNA-binding protein with multiple splicing (RBPMS) was used at a 1:100 dilution (PhosphoSolutions, Aurora, CO, USA). RBPMS-positive and PI-positive cells in the ganglion cell layer were counted in 2 images from 2 square areas (775 × 775 μm each) located 3–5 mm and 5–7 mm away from the tips of the fan-shaped retinal flat mounts. The percentage of PI-positive RGCs was calculated as [the number of PI and RBPMS-double positive cells/the number of all RBPMS-positive cells] × 100.

[4] = tested on: calpains 1 and 2 in monkey retinal lysate; assay: In vitro inhibitory assay of calpains from retinal lysate (CaCl2, immunoblotting); type: biochemical; conditions: non-cultured monkey retina lysate, 10 mM CaCl2, 2 hr, 37°C; inhibitor at 1, 10 and 100 µM
Method: as §3
To confirm the isozyme specificities of calpain inhibitors in vitro, non-cultured monkey retinas were sonicated in a buffer containing 20 mM Tris (pH 7.5), 5 mM EGTA, 5 mM EDTA, 2 mM DTE. […]

[5] = target: T1, human erythrocyte calpain 1 (Homo sapiens, UniProt P07384); assay: Calpain-Glo Protease Assay; type: biochemical; conditions: 5 mM CaCl2, 10 min, room temperature; mean of two experiments
T1 construct: human erythrocyte calpain 1 (MilliporeSigma); purchased MilliporeSigma; host or cells: human erythrocytes
T1 sequence (P07384 1-714): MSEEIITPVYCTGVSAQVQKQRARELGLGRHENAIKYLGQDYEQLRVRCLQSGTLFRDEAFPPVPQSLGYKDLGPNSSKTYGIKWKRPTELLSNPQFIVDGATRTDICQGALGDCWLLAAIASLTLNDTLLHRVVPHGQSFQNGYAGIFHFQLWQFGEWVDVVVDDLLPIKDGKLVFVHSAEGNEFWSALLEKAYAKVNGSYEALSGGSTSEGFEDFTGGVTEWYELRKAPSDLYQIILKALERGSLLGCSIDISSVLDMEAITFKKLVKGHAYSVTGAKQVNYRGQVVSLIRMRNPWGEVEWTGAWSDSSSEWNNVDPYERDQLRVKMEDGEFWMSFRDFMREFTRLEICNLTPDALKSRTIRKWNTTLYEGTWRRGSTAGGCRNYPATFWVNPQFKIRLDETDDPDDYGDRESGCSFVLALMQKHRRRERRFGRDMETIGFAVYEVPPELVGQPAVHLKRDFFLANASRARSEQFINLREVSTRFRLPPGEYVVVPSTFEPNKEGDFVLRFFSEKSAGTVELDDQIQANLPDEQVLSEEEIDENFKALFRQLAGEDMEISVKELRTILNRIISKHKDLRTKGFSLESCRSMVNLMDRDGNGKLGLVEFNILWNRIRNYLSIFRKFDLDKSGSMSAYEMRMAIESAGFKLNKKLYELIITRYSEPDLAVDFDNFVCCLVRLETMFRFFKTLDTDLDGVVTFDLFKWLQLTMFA
T1 sequence (P04632 1-268 partner): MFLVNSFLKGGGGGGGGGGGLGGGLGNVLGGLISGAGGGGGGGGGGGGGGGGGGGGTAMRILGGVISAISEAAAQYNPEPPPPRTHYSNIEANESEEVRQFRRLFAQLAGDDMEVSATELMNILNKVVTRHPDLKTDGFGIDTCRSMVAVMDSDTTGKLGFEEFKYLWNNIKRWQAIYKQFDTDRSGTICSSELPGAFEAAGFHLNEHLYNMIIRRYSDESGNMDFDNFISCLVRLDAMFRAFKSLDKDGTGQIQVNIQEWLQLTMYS
Method: (§4) For measurement of inhibitory activities against calpains in vitro, Calpain-Glo Protease Assay (Promega; Madison, WI, USA) was performed using human erythrocyte calpain 1 (MilliporeSigma) and purified porcine calpain 2. Briefly, 24 µL of each calpain diluted with 20 mM Tris-HCl (pH 7.4), 1 µL of each inhibitor, and 25 µL of reaction buffer including CaCl2 in a 96-well plate was incubated for 10 min at room temperature. The final concentration of CaCl2 in the reaction solution was 5 mM. The luminescence was measured using a microplate reader (GloMax Discover System; Promega). IC50 values from two independent experiments were averaged.

[6] = tested on: purified porcine calpain 2; assay: Calpain-Glo Protease Assay; type: biochemical; conditions: 5 mM CaCl2, 10 min, room temperature; mean of two experiments
From the text: The porcine kidney was obtained from DART Co., Ltd. as part of a program aimed at the effective utilization of livestock by-products in Hokkaido, Japan. The procurement process followed ethical guidelines from Livestock Industry Bureau MAFF-J (ministry of agriculture, forestry and fisheries of Japan) for farm animal use, ensuring compliance with relevant regulations. Two porcine kidneys were rapidly frozen after removal, trimmed free of excess tissue or renal pelvis, and cut into small pieces (approximately 2 × 2 cm) before they thawed. About 250 g of these pieces were homogenized in 1200 mL of ice-cold 20 mM Tris-HCl (pH 8.0) with 5 mM ethylenediaminetetraacetic acid (EDTA), 0.1% 2-mercaptoethanol (2-ME), 0.1 mg/mL Pefabloc SC (MilliporeSigma, Burlington, MA, USA), 40 µg/mL bestatin, and 4 µg/mL pepstatin in a Waring blender HGBSS (Waring; Stamford, CT, USA) at 19,000 rpm using several bursts of 10 sec each with 20 sec cooling periods between each burst. The homogenate was centrifuged at 25,000 × g for 15 min at 4°C, and the supernatant was filtered through glass wool and a 5 µm filter (Merck) to remove floating lipids. The purification procedure was performed according to the method of Thompson and Goll with some minor modifications: the DEAE-cellulose and the DEAE-TSK ToyoPearl 650S columns were substituted with DEAE sepharose fast flow (Merck) and TSKgel DEAE-5PW (30) (Tosoh; Tokyo, Japan) columns, respectively. After purification, calpain-2 was dialyzed, and glycerol was added for freeze-thaw protection. The final buffer formulation was 20 mM imidazole, 5 mM 2-ME, 1 mM EDTA, 1 mM EGTA, and 20% glycerol.
as §4

| SMILES | Effect on SBDP150 staining in NFL ([1]; BAPTA at lower concentration (3 mM)) | Effect on activation of calpain 1 and proteolysis of α-spectrin (immunoblot) [2] | Effect on RGC damage (PI-positive RGCs) [3] | Effect on calcium-induced activation (autolysis) of calpains 1 and 2 and SBDP150 in retinal lysate [4] | IC50 [5] [nM] | IC50 [6] [nM] | Effect on SBDP150 staining in NFL ([1]; BAPTA-AM 500 μM) |
| --- | --- | --- | --- | --- | --- | --- | --- |
| O=C(O)CN(CC(=O)O)c1ccccc1OCCOc1ccccc1N(CC(=O)O)CC(=O)O [BAPTA] | reduced SBDP150 staining | mitigated; also recorded: inhibited the autolytic activation of calpain 1 | almost completely inhibited | – | – | – | – |
| O=C(O)/C(S)=C/c1c[nH]c2ccc(F)cc12 [PD-151746] | – | – | – | also inhibited calpain activation, but not as strongly as SNJ-1945 and ABT-957 | 150 | 249 | – |
| CC(=O)OCOC(=O)CN(CC(=O)OCOC(C)=O)c1ccccc1OCCOc1ccccc1N(CC(=O)OCOC(C)=O)CC(=O)OCOC(C)=O [BAPTA-AM] | – | mitigated | partial | – | – | – | inhibited the increase in SBDP150 staining |
| O=C(NC1CC1)C(=O)C(Cc1ccccc1)NC(=O)[C@H]1CCC(=O)N1Cc1ccccc1 (stereo partly drawn) [ABT-957] | – | – | – | inhibited the activation of both calpain 1 and calpain 2 in a dose-dependent manner | 403 | 429 | – |
